# Experimental data reported in patent US5670479A, “α-ketoamide derivatives as inhibitors of thrombosis” (Corvas International, Inc., priority 1994, dated 1997).
# Columns and labels:
# baboons = conditions: baboon; dose which gives a 50% inhibition of platelet deposition; other direct antithrombins evaluated earlier in this model; cited from earlier work
# a-thrombin [1] = biological target: T1, a-thrombin (Homo sapiens, UniProt P00734); assay: Amidolytic thrombin assay (inhibitor constant Ki, Ki*); format: biochemical; parameters: Purified human a-thrombin; purchased Enzyme Research Laboratories, Inc; conditions: human a-thrombin 0.25 nM, Pefachrome t-PA substrate, HBSA pH 7.5
# Description: The ability of the compounds of the present invention to act as inhibitors of thrombin catalytic activity in comparison to Hirulog-1 (compound 25) was assessed by determining their inhibition constant, Ki.
# Enzyme activity was determined using the chromogenic substrate Pefachrome t-PA (CH3 SO2 -D-hexahydrotyrosine-glycyl-L-arginine-p-nitroaniline, obtained from Pentapharm Ltd.). The substrate was reconstituted in deionized water prior to use.
# Ki values were determined for test compounds using the following methodologies:
# The assay was conducted by combining in appropriate wells of a Corning microtiter plate, […], […] of the test compound at a specified concentration diluted in HBSA (or HBSA alone for Vo(uninhibited velocity) measurement), and 50 mL of the chromogenic substrate diluted in HBSA. […] Velocities of Pefachrome-tPA substrate hydrolysis which occurred over a 40 minute time period was measured by the change in absorbance at 405 nm using a Thermo Max® Kinetic Microplate Reader. […]
# The initial velocity of Pefachrome t-PA hydrolysis was measured by the change in absorbance at 405 nm using a Thermo Max® Kinetic Microplate Reader over a 2 minute period in which less than 5% of the added substrate was utilized. […]
# Ki* was determined by fitting Vs/Vo verses [I] using Equation 1 by non-linear regression analysis. […]
# a-thrombin [2] = biological target: T1, a-thrombin; assay: Inhibition of fluid-phase thrombin (FPA generation in citrated plasma); format: biochemical; parameters: Purified human a-thrombin; purchased Enzyme Research Laboratories, Inc; conditions: 60 min, 37° C., compound 8 18.75 nM, Hirulog-1 500 nM, rHIR 4 nM, FIG. 5A
# Description: I. et.al. J. Clin. Invest., 86: 385-391 (1990). Human a-thrombin (2 U/ml) was incubated with citrated plasma for 60 minutes at 37° C. in the absence or presence of varying concentrations of each of the inhibitors. At timed intervals, 100 μl aliquots were removed and the reaction was terminated by the addition of […] (5 μM, final concentration). Unreacted fibrinogen was then precipitated with ethanol, and the ethanol supernatants were assayed for fibrinopeptide A (FPA). Thrombin addition to plasma results in rapid FPA generation which reaches a plateau in minutes as the thrombin is complexed and inactivated by fluid-phase antiproteases.(e.g. antithrombin III).
# clot-bound a-thrombin = biological target: T2, clot-bound a-thrombin (Homo sapiens, UniProt P00734); assay: Inhibition of clot-bound thrombin (FPA generation in citrated plasma); format: biochemical
# T2 construct: from tissue; host or cells: washed clots formed from citrated plasma by adding CaCl2
# Description: Plasma clots were formed around wire hooks by the addition of CaCl2 (final concentration, 25 mM) to 500 μl aliquots of citrated plasma. After aging the clots for 60 minutes at 37° C. with constant agitation, the clots were washed 10 times with 2 ml aliquots of 0.1M NaCl buffered with 0.05M Tris-HCL, pH 7.4 over an 18 hour period. The washed clots were then incubated in 1 ml aliquots of citrated plasma for 60 minutes at 37° C. in the absence or presence of the various inhibitors. At timed intervals, 100 μl aliquots were removed and the reaction was terminated by the addition of the irreversible serine protease inhibitor, D-phenylalanyl-prolinyl-argininyl-CH2 Cl.
# Unreacted fibrinogen was precipitated with ethanol, and the ethanol supernatants were then assayed for FPA.
substance,measurement,setting,value
(D-Phe)-Pro-Arg-Pro-(Gly)4 -Asn-Gly-Asp-Phe-Glu-Glu-Ile-Pro-Glu-Glu-Tyr-Leu-OH [Hirulog-1],Antithrombotic Effects ED50,baboons,125 nmol/kg/min
same,Ki,a-thrombin [1],0.437 nM
same,inhibition of fluid-phase a-thrombin-mediated FPA generation,a-thrombin [2],only transient inhibition
same,inhibition of clot-bound a-thrombin-mediated FPA generation,"clot-bound a-thrombin; citrated human plasma, 60 min, 37° C., compound 8 18.75 nM, Hirulog-1 500 nM, rHIR 4 nM, FIG. 5B",only transiently inhibited FPA generation
same,inhibition of clot-bound versus fluid-phase thrombin at 60 minutes incubation,"clot-bound a-thrombin; percent inhibition of FPA generation at 60 min, FIG. 6",less inhibitory activity against clot-bound thrombin
